{
  "source": "patent US6069172A",
  "about": "“(R)-2-(3-benzoylphenyl) propionic acid salts and pharmaceutical preparations containing them” (priority 1998, dated 2000)",
  "key": {"PMN leucocyte": {"system": "PMN leucocyte", "settings": "200 mg for 10 days; cited from earlier work"}, "[1]": {"system": "chemotactic activity induced by zymosan", "settings": "healthy volunteers and patients; cited from earlier work"}, "[2]": {"system": "carrageenin-induced pleural exudate; PMN cell migration", "settings": "cited from earlier work"}, "neutrophil": {"system": "neutrophil", "settings": "Ca^++ ionophore and FLMP; cited from earlier work"}, "PMN leukocytes": {"system": "PMN leukocytes", "settings": "cited from earlier work"}, "T-cell": {"system": "T-cell", "settings": "stimulated by these agonists; cited from earlier work"}, "TXB2 synthesis": {"system": "TXB2 synthesis", "assay": "TXB2 synthesis inhibition in human blood", "type": "cell-based", "settings": "index of platelet antiaggregating properties"}, "gastrolesive action": {"assay": "gastrolesive action", "settings": "in vivo"}, "platelet aggregation": {"system": "platelet aggregation", "assay": "inhibitory action on platelet aggregation"}, "[3]": {"system": "ultra-violet radiation-induced epidermal erythema", "settings": "topic; guinea pigs; cited from earlier work"}, "[4]": {"system": "carrageenin-induced oedema", "settings": "compared with racemate and (S) enantiomer; rats; cited from earlier work"}, "[5]": {"system": "croton oil-induced ear oedema", "settings": "compared with racemate and (S) enantiomer; mice; cited from earlier work"}, "pain perception": {"system": "pain perception", "settings": "men; compared with (S) enantiomers; cited from earlier work"}, "[6]": {"settings": "rats; in words; cited from earlier work"}},
  "data": [
    {"compound": "CC(C(=O)O)c1cccc(C(=O)c2ccccc2)c1", "note": "(racemic) [ketoprofen]", "values": [
      {"measurement": "PMN leucocyte fagocytosis", "setting": "PMN leucocyte", "value": "reduction"},
      {"measurement": "bactericidal function of PMN", "setting": "PMN leucocyte", "value": "not affected"},
      {"measurement": "chemotactic activity induced by zymosan", "setting": "[1]", "value": "inhibited"},
      {"measurement": "migration of cells into the pleural cavity, later study", "setting": "[2]; later demonstration against the earlier one", "value": "exatly the opposite"},
      {"measurement": "migration of cells into the pleural cavity", "setting": "[2]; oral, PMN cells vs monocytes, thought in 1975", "value": "inhibit the migration of PMN cells, but not that of monocytes"},
      {"measurement": "carrageenin-induced formation of pleural exudate", "setting": "[2]; oral", "value": "inhibited"},
      {"measurement": "inhibition of neutrophil activation / blockade of Ca^++ ion entry", "setting": "neutrophil", "value": "completely inactive"}
    ]},
    {"compound": "4-[3-(4-Fluorophenyl)]-2-[[4-(N-3-(2-quinolinmethoxy) phenyl)]amino]phenylpropylbenzoic acid [ETH-615]", "values": [
      {"measurement": "chemotaxis of PMN leukocytes induced by FLMP", "setting": "PMN leukocytes; FLMP", "value": "only slightly inhibited"},
      {"measurement": "chemotaxis of PMN leukocytes induced by IL-8 or LTB4", "setting": "PMN leukocytes; IL-8 or LTB4", "value": "clearly inhibited"},
      {"measurement": "T-cell migration", "setting": "T-cell", "value": "no effects"}
    ]},
    {"compound": "C[C@@H](C(=O)O)c1cccc(C(=O)c2ccccc2)c1", "note": "[(R)-ketoprofen, (R)-2-(3-benzoylphenyl)propionic acid]", "values": [
      {"measurement": "IC50", "setting": "TXB2 synthesis", "value": "9.75 ± 0.75", "unit": "mM"},
      {"measurement": "gastrolesive action", "setting": "gastrolesive action", "value": "substantially devoid"},
      {"measurement": "inhibitory action on platelet aggregation", "setting": "platelet aggregation", "value": "substantially devoid"},
      {"measurement": "inhibition of COX-1", "setting": "COX-1", "value": "do not inhibit"},
      {"measurement": "inhibition of COX-2", "setting": "COX-2", "value": "do not inhibit"},
      {"measurement": "Protection, UV radiation-induced epidermal erythema", "setting": "[3]", "value": "53.1±4.6", "unit": "%"},
      {"measurement": "in vivo antiinflammatory effectiveness, carrageenin-induced oedema", "setting": "[4]", "value": "significantly lower than those of the racemate and of the (S) enantiomer"},
      {"measurement": "in vivo antiinflammatory effectiveness, croton oil-induced ear oedema", "setting": "[5]", "value": "significantly lower than those of the racemate and of the (S) enantiomer"},
      {"measurement": "inhibition of pain perception", "setting": "pain perception", "value": "efficacy at least similar to that of the (S) enantiomers"},
      {"measurement": "conversion of (R) into (S) enantiomer", "setting": "[6]", "value": "completely converted"}
    ]}
  ]
}
